# In patent US20050282911A1, “Memantine for the prevention or reduction of suicidality and for treatment of major depression associated with suicidality” (priority 2003, published 2005):
# Test system: patients with major depressive disorder (MDD)
# Experiment: Open-label, flexible dose, 12-week study of memantine in major depressive disorder (MEM-MD-09): efficacy
# Type: in vivo, human
# Parameters: CGI-I mean score: scale not given here
# Details: for CGI-I mean score / Mean Change from Baseline in CGI-S / Mean Change from Baseline in HAM-D / Mean Change from Baseline in MADRS: ITT Population; for Mean Change from Baseline in CGI-S: baseline 4.3; for Mean Change from Baseline in HAM-D: baseline 30.0; for Mean Change from Baseline in MADRS: baseline 31.9
# From the text: The present study was a single-center, open-label, flexible dose, 12-week study designed to provide a preliminary assessment of the efficacy and safety of memantine in patients with major depressive disorder (MDD). In order to assess the efficacy of treatment on depressive symptomatology, the primary efficacy assessment was the Montgomery Depression Rating Scale (MADRS). Secondary efficacy assessments included the Hamilton Depression Rating Scale (HAM-D), the Clinical Global Impressions—Severity Scale (CGI-S), the Clinical Global Impressions—Improvement Scale (CGI-I), the Patient Global Evaluation (PGE), and the Quality of Life Scale (QOL).
# Study Design. The study was designed as a single-center, open-label, flexible dose 12-week study. Memantine was to be administered at 20 mg/day (10 mg b.i.d.) (titrated over a 4 week period), and, if warranted, up-titrated to a maximum of 40 mg/day (20 mg b.i.d.) (titrated in increments of 10 mg/day after Week 4).
# Entrance Criteria. Criteria for enrollment were as follows: (i) male or female outpatients between 18 and 80 years of age at screening; (ii) diagnosis of MDD consistent with DSM-IV; (iii) Montgomery Asberg Depression Rating Scale (MADRS) score of 22 or greater; and CGI severity score of 4 or greater. None of the patients had attempted suicide or were diagnosed as being at risk for committing suicide.
# Endpoints. The primary endpoint was improvement according to Montgomery Asberg Depression Rating Scale (MADRS). Secondary endpoints were improvements according to the Hamilton Depression Rating Scale (HAM-D), the Clinical Global Impressions-Severity Scale (CGI-S), the Clinical Global Impressions-Improvement Scale (CGI-I), Patient Global Evaluation (PGE), and Quality of Life Scale (QOL).
# MADRS. MADRS is either self-administered (MADRS-S) or interviewer administered evaluation of symptoms of depression in adults. MADRS evaluates ten areas of depressive symptomatology: apparent sadness, reported sadness, inner tension, reduced sleep, reduced appetite, concentration difficulties, lassitude, inability to feel, pessimistic thoughts, and suicidal thoughts. Each area is rated on a seven-point scale (0-6).
# MADRS was administered to each of the study participants at baseline, and weeks 1, 2, 3, 4, 6, 8, 10 and 12.
# HAM-D. HAM-D criteria were assessed at weeks 1, 2, 4, 8 and 12. HAM-D is a 24-item scale that evaluates depressed mood, vegetative and cognitive symptoms of depression, and comorbid anxiety symptoms. It provides ratings on current DSM-IV symptoms of depression, with the exceptions of hypersomnia, increased appetite, and concentration/indecision. There are several ways of analyzing HAM-D. According to one analysis, the first 17-items are rated on either a 5-point (0-4) or a 3-point (0-2) scale. In general, the 5-point scale items use a rating of 0=absent; 1=doubtful to mild; 2=mild to moderate; 3=moderate to severe; 4=very severe. A rating of 4 is usually reserved for extreme symptoms. The 3-point scale items used a rating of 0=absent; 1=probable or mild; 2=definite. The second analysis uses the same scale to rate the first 21 items, and the third analysis uses the scale to rate all 24 items. All three analyses were used in the present study and used statistically in the results.
# Response to medication (i.e., memantine) was defined as a reduction in the HAM-D 24 score of 50%, while remission was defined as a reduction in the HAM-D total score to 7 or less.
# DSM-IV. DSM-IV diagnostic criteria were determined at week 1 and again at the end of the study. […]
compound,measurement,setting,value
"CC12CC3CC(C)(C1)CC(N)(C3)C2.Cl [Memantine, 1-amino-3,5-dimethyladamantane hydrochloride]",HAM-D ECDEU combination (cognitive disturbance factor),12 week period,improved
same,shift in severity ranking (CGI-S),"12 week period, with the exception of one patient",improved to “mildly depressed” or to “not depressed”
same,"HAM-D item 8, MADRS item 6 and DSM-IV criterion “h” (concentration, cognitive disturbance)",12 week treatment period,improved
same,"reduction in MADRS and HAM-D (17-, 21-, and 24-question versions) at endpoint","LOCF analyses, endpoint",approximately 18 points
same,CGI-I mean score,"Week 1, LOCF",2.7
same,Mean Change from Baseline in CGI-S,"Week 1, LOCF",−0.5
same,Mean Change from Baseline in HAM-D,"Week 1, LOCF",−6.1
same,Mean Change from Baseline in MADRS,"Week 1, LOCF",−7.9
same,CGI-I mean score,"Week 1, OC",2.7
same,Mean Change from Baseline in CGI-S,"Week 1, OC",−0.7
same,Mean Change from Baseline in HAM-D,"Week 1, OC",−8.2
same,Mean Change from Baseline in MADRS,"Week 1, OC",−10.5
same,CGI-I mean score,"Week 2, LOCF",2.8
same,Mean Change from Baseline in CGI-S,"Week 2, LOCF",−0.6
same,Mean Change from Baseline in HAM-D,"Week 2, LOCF",−11.8
same,Mean Change from Baseline in MADRS,"Week 2, LOCF",−12.1
same,CGI-I mean score,"Week 2, OC",2.8
same,Mean Change from Baseline in CGI-S,"Week 2, OC",−0.6
same,Mean Change from Baseline in HAM-D,"Week 2, OC",−11.8
same,Mean Change from Baseline in MADRS,"Week 2, OC",−12.1
same,CGI-I mean score,"Week 3, LOCF",2.4
same,Mean Change from Baseline in CGI-S,"Week 3, LOCF",−0.9
same,Mean Change from Baseline in MADRS,"Week 3, LOCF",−14.3
same,CGI-I mean score,"Week 3, OC",2.3
same,Mean Change from Baseline in CGI-S,"Week 3, OC",−1.0
same,Mean Change from Baseline in MADRS,"Week 3, OC",−14.7
same,CGI-I mean score,"Week 4, LOCF",2.3
same,Mean Change from Baseline in CGI-S,"Week 4, LOCF",−1.3
same,Mean Change from Baseline in HAM-D,"Week 4, LOCF",−16.8
same,Mean Change from Baseline in MADRS,"Week 4, LOCF",−15.6
same,CGI-I mean score,"Week 4, OC",2.1
same,Mean Change from Baseline in CGI-S,"Week 4, OC",−1.4
same,Mean Change from Baseline in HAM-D,"Week 4, OC",−20.8
same,Mean Change from Baseline in MADRS,"Week 4, OC",−17.0
same,CGI-I mean score,"Week 6, LOCF",2.4
same,Mean Change from Baseline in CGI-S,"Week 6, LOCF",−1.3
same,Mean Change from Baseline in MADRS,"Week 6, LOCF",−15.0
same,CGI-I mean score,"Week 6, OC",2.4
same,Mean Change from Baseline in CGI-S,"Week 6, OC",−1.3
same,Mean Change from Baseline in MADRS,"Week 6, OC",−15.0
same,CGI-I mean score,"Week 8, LOCF",2.0
same,Mean Change from Baseline in CGI-S,"Week 8, LOCF",−1.5
same,Mean Change from Baseline in HAM-D,"Week 8, LOCF",−16.8
same,Mean Change from Baseline in MADRS,"Week 8, LOCF",−18.6
same,CGI-I mean score,"Week 8, OC",1.9
same,Mean Change from Baseline in CGI-S,"Week 8, OC",−1.6
same,Mean Change from Baseline in HAM-D,"Week 8, OC",−19.0
same,Mean Change from Baseline in MADRS,"Week 8, OC",−20.4
same,CGI-I mean score,"Week 10, LOCF",2.1
same,Mean Change from Baseline in CGI-S,"Week 10, LOCF",−1.8
same,Mean Change from Baseline in MADRS,"Week 10, LOCF",−18.5
same,CGI-I mean score,"Week 10, OC",2.3
same,Mean Change from Baseline in CGI-S,"Week 10, OC",−1.6
same,Mean Change from Baseline in MADRS,"Week 10, OC",−16.7
same,CGI-I mean score,"Week 12, LOCF",2.1
same,Mean Change from Baseline in CGI-S,"Week 12, LOCF",−1.5
same,Mean Change from Baseline in HAM-D,"Week 12, LOCF",−17.8
same,Mean Change from Baseline in MADRS,"Week 12, LOCF",−18.5
same,CGI-I mean score,"Week 12, OC",2.3
same,Mean Change from Baseline in CGI-S,"Week 12, OC",−1.3
same,Mean Change from Baseline in HAM-D,"Week 12, OC",−16.0
same,Mean Change from Baseline in MADRS,"Week 12, OC",−16.7
same,overall impression of improvement (CGI-I),after 12 weeks,overall impression of improvement as measured using CGI-I in all patients with the exception of one
same,DSM-IV checklist: degree of symptomology,"all DSM-IV categories, end of study",reduction in the degree of symptomology in all DSM-IV categories
same,improvement on the primary and all secondary efficacy variables,"baseline to Week 12, LOCF and OC approaches",Significant improvement
same,onset of therapeutic benefit in the treatment of MDD,"eight patients with MDD, first assessment",1 week
same,patients considered “Very Much Improved” or “Much Improved” as measured by the CGI-I,end of Week 8,6 of 7
same,"patients responded to treatment, as measured by the MADRS and the HAM-D","end of Week 8, responder defined as 50% improvement from baseline",5 of the 7
same,DSM-IV checklist: categories of appetite and agitation/retardation,end of study,complete remission of symptoms in all patients
same,overall therapeutic response compared to citalopram and escitalopram,"memantine 20-40 mg/day, comparison with prior study SCT-MD-01",larger magnitude and faster onset of overall therapeutic response
same,"appetite items HAM-D 12, MADRS item 5 and DSM-IV item “c”",overall scores versus baseline,decrease from baseline
same,"HAM-D items 1, 2, 3 and 7",specific items chosen for analysis,positive change
same,score of item 3 of HAM-D (suicide),throughout visit 8,steady improvement
same,patients meeting criteria as CGI-I responders,week 12,62.5%
same,mean change from baseline to endpoint on the HAM-D,"week 12, printed without sign",about 17.8
same,mean change from baseline to endpoint on the MADRS,"week 12, printed without sign",about 18.5
same,"HAM-D item combinations for melancholy, anxiety, psychomotor retardation and insomnia",week 12 from baseline,improvement
